Test results reported in article PMC6150220, “An Optimized and Sensitive Pharmacokinetic Quantitative Method of Investigating Gastrodin, Parishin, and Parishin B, C and E in Beagle Dog Plasma using LC-MS/MS after Intragastric Administration of Tall Gastrodia Capsules” (Molecules : A Journal of Synthetic Chemistry and Natural …, 2017).

Test: Pharmacokinetic study in beagle dog plasma (LC-MS/MS) after intragastric administration of tall Gastrodia capsules
Description: After full validation, the LC-ESI-MS/MS method was used to analyze large batches of beagle dog plasma. […] The corresponding pharmacokinetic parameters were generated by fitting plasma concentration profiles to a non-compartmental model. These are summarized in Table 3, expressed as the mean ± SD (n = 5).
Quantitative analysis was conducted on a 1290 UPLC-photodiode array 6460 triple quadrupole mass spectrometry system (LC-MS/MS, Agilent Technologies, Palo Alto, CA, USA). Analysis was carried out on. Separation of analytes was performed on a reversed phase Agilent Zorbax XDB-C18 HPLC column (2.1 mm × 50 mm, particle size 3.5 μm) with the column oven set to 30 °C. The elution gradient was carried out with a binary solvent system consisting of an aqueous solution of 0.4% v/v formic acid in water (A) and acetonitrile (B) at a flow rate of 0.15 mL/min. Optimized separation was obtained according to a linear gradient (0–2 min, 2% B; 2–4 min, 2–12% B; 4–8 min, 12–20% B; 8–14 min, 20–28% B; […], 28–90% B). MS/MS conditions were as follows: negative ion mode, drying gas (N2) flow rate 8.0 L/min, drying gas temperature 300 °C, declustering potential 150 V, nebulizer pressure 45 psi, ESI Vcap 3500 V, sheath gas temperature 300 °C, sheath gas flow 12 L/min, nozzle voltage 500 V. The mass transition of gastrodin (m/z 331.1→123.0, CE: 3 eV), parishin (m/z 995.4→727.0, CE: 42 eV), parishin B (m/z 727.3→423.0, CE: 20 eV), parishin C (m/z 727.3→423.1, CE: 20 eV), parishin E (m/z 459.3→110.9, CE: 19 eV) and bergenin (m/z 327.0→234.0, CE: 4 eV).
Adult male […] beagle dogs (12 kg ± 0.020 kg) were purchased from Beijing Shahe Bio-Technology (Beijing, China; certificate No. SCXK2014-0007). Before drug administration, the dogs were fasted for 12 h with free access to water. They were maintained on a 12 h light-dark cycle (light on from 6:00 to 18:00 h) at ambient temperature (22–24 °C) with 60% relative humidity. The animals were observed twice daily and body weights were recorded once per day to assess their general health. All experimental protocols on animals were carried out according to the Guidelines of the Committee on the Care and Use of Laboratory Animals of China.
Fifteen beagle dogs were randomly divided into three groups to receive an intragastric dose of tall Gastrodia capsules (0.125, 0.25 and 0.5 g/kg). Capsules were ultrasonically dissolved in pure water and suspended at concentrations of 5, 10 and 20 mg/mL for intragastric administration. […] The HPLC quantitative analysis was based on the previous report with some modification. After administration, serial blood samples (about 2.00 mL) were collected from the foreleg vein […] into heparin-containing capillary tubes at 10, 20, 30, 45, 60, 120, 180, 240, 480, 720 and 1440 min. Blood samples were promptly centrifuged at 5000 rpm for 5 min, and the plasma was separated and stored at −20 °C until analysis.
Plasma samples were thawed to 4 °C before processing. An aliquot of 200 μL of the plasma sample was transferred into an Eppendorf tube, and 1000 μL of ice-cold 1% formic acid methanol containing IS (10 μL, 2.0 μg/mL) was added to precipitate the plasma proteins. Samples were then vortexed for 3 min and centrifuged at 12,000 rpm for 10 min. The supernatant was transferred and evaporated to dryness under a gentle stream of nitrogen at 40 °C. The residue was reconstituted in 200 μL of 5.0% methanol–water, and a 10 μL aliquot was injected for analysis.

[1] = male, beagle, dog, in vivo, po, 0.125 g/kg
[2] = male, beagle, dog, in vivo, po, 0.25 g/kg
[3] = male, beagle, dog, in vivo, po, 0.5 g/kg

| AUC(0-inf) [1] [ng·h/mL] | AUC(0-t) [1] [ng·h/mL] | Cmax [1] [ng/mL] | MRT inf [1] [h] | MRT last [1] [h] | Tmax [1] [h] | half-life [1] [h] | AUC(0-inf) [2] [ng·h/mL] | AUC(0-t) [2] [ng·h/mL] | Cmax [2] [ng/mL] | MRT inf [2] [h] | MRT last [2] [h] | Tmax [2] [h] | half-life [2] [h] | AUC(0-inf) [3] [ng·h/mL] | AUC(0-t) [3] [ng·h/mL] | Cmax [3] [ng/mL] | MRT inf [3] [h] | MRT last [3] [h] | Tmax [3] [h] | Structure (SMILES) | also measured |
| --- | --- | --- | --- | --- | --- | --- | --- | --- | --- | --- | --- | --- | --- | --- | --- | --- | --- | --- | --- | --- | --- |
| 1570 ± 533 | 1550 ± 530 | 526 ± 143 | 2.32 ± 0.25 | 2.25 ± 0.26 | 1.25 ± 0.69 | 1.08 ± 0.11 | 2720 ± 1140 | 2700 ± 1130 | 746 ± 320 | 2.84 ± 0.44 | 2.78 ± 0.42 | 1.8 ± 0.45 | 1.18 ± 0.29 | 4720 ± 2330 | 4700 ± 2330 | 1220 ± 562 | 2.8 ± 0.42 | 2.76 ± 0.44 | 2 ± 0.71 | O=C(O)CC(O)(CC(=O)OCc1ccc(OC2OC(CO)C(O)C(O)C2O)cc1)C(=O)OCc1ccc(OC2OC(CO)C(O)C(O)C2O)cc1 (centres unmarked) [Parishin B, parishin B] | Mean plasma clearance (CL) (male, beagle, dog, in vivo, po): 14.5 mL/min/kg; CL (plasma clearance) [1]: 12 ± 6.5 mL/min/kg; CL (plasma clearance) [2]: 13 ± 3.83 mL/min/kg; CL (plasma clearance) [3]: 18.5 ± 14 mL/min/kg; half-life [3]: 1.17 ± 0.22 h |
| 359 ± 99.3 | 349 ± 100 | 107 ± 29.4 | 2.7 ± 0.28 | 2.47 ± 0.28 | 1.35 ± 0.6 | 1.37 ± 0.18 | 578 ± 200 | 567 ± 198 | 144 ± 55.1 | 3.31 ± 0.59 | 3.14 ± 0.54 | 2 ± 0.71 | 1.56 ± 0.41 | 1100 ± 527 | 1090 ± 523 | 243 ± 99.6 | 3.25 ± 0.72 | 3.18 ± 0.69 | 2.4 ± 0.55 | O=C(CC(O)(CC(=O)OCc1ccc(O[C@@H]2O[C@H](CO)[C@@H](O)[C@H](O)[C@H]2O)cc1)C(=O)O)OCc1ccc(O[C@@H]2O[C@H](CO)[C@@H](O)[C@H](O)[C@H]2O)cc1 [Parishin C, parishin C] | Mean plasma clearance (CL) (male, beagle, dog, in vivo, po): 16 mL/min/kg; CL (plasma clearance) [1]: 12 ± 3.83 mL/min/kg; CL (plasma clearance) [2]: 15.2 ± 3.83 mL/min/kg; CL (plasma clearance) [3]: 21 ± 17.5 mL/min/kg; half-life [3]: 1.29 ± 0.36 h |
| 899 ± 299 | 868 ± 314 | 388 ± 116 | 2 ± 0.3 | 1.8 ± 0.42 | 1 ± 0.56 | 1.15 ± 0.18 | 1520 ± 832 | 1500 ± 836 | 462 ± 230 | 2.65 ± 0.44 | 2.49 ± 0.4 | 1.55 ± 0.62 | 1.38 ± 0.34 | 3280 ± 1370 | 3270 ± 1370 | 969 ± 292 | 2.5 ± 0.35 | 2.48 ± 0.36 | 1.45 ± 0.76 | O=C(CC(O)(CC(=O)OCc1ccc(OC2OC(CO)C(O)C(O)C2O)cc1)C(=O)OCc1ccc(OC2OC(CO)C(O)C(O)C2O)cc1)OCc1ccc(OC2OC(CO)C(O)C(O)C2O)cc1 (centres unmarked) [Parishin, parishin] | Mean plasma clearance (CL) (male, beagle, dog, in vivo, po): 52.3 mL/min/kg; CL (plasma clearance) [1]: 44.8 ± 16.8 mL/min/kg; CL (plasma clearance) [2]: 59.3 ± 29.2 mL/min/kg; CL (plasma clearance) [3]: 53 ± 27.5 mL/min/kg; half-life [3]: 1.05 ± 0.16 h |

| Structure (SMILES) | AUC(0-inf) [1] [ng·h/mL] | AUC(0-t) [1] [ng·h/mL] | Cmax [1] [ng/mL] | MRT inf [1] [h] | MRT last [1] [h] | Tmax [1] [h] | half-life [1] [h] | AUC(0-inf) [2] [ng·h/mL] | AUC(0-t) [2] [ng·h/mL] | Cmax [2] [ng/mL] | MRT inf [2] [h] | MRT last [2] [h] | Tmax [2] [h] | half-life [2] [h] | AUC(0-inf) [3] [ng·h/mL] | AUC(0-t) [3] [ng·h/mL] | Cmax [3] [ng/mL] | MRT inf [3] [h] | MRT last [3] [h] | Tmax [3] [h] | also measured |
| --- | --- | --- | --- | --- | --- | --- | --- | --- | --- | --- | --- | --- | --- | --- | --- | --- | --- | --- | --- | --- | --- |
| OCc1ccc(O[C@@H]2O[C@H](CO)[C@@H](O)[C@H](O)[C@H]2O)cc1 [Gastrodin, gastrodin] | 5080 ± 2110 | 4890 ± 2060 | 1200 ± 120 | 3.33 ± 1.09 | 2.98 ± 1.01 | 1.1 ± 0.52 | 1.86 ± 0.67 | 9170 ± 1790 | 8830 ± 1860 | 2050 ± 495 | 3.8 ± 0.28 | 3.46 ± 0.29 | 1.75 ± 0.9 | 1.9 ± 0.26 | 17600 | 17000 | 3760 ± 778 | 3.93 ± 0.99 | 3.54 ± 0.69 | 2 ± 0.71 | Time after administration at which detected in plasma (beagle dog plasma, intragastric capsules, all three dosage levels): 10 min; CL (plasma clearance) (beagle dog plasma, intragastric tall Gastrodia capsules, high dose 0.5 g/kg, mean ± SD, n = 5): 3.5 ± 0.83 mL/min/kg; CL (plasma clearance) (beagle dog plasma, intragastric tall Gastrodia capsules, low dose 0.125 g/kg, mean ± SD, n = 5): 3.5 ± 2.17 mL/min/kg; CL (plasma clearance) (beagle dog plasma, intragastric tall Gastrodia capsules, medium dose 0.25 g/kg, mean ± SD, n = 5): 3.33 ± 0.67 mL/min/kg; Mean plasma clearance (CL) (beagle dogs, mean over the three intragastric dose levels of tall Gastrodia capsules): 3.3 mL/min/kg; half-life [3]: 2.09 ± 0.68 h |
